# Test results taken from PubChem BioAssay AID1918931 (Molecular Pharmacology Branch, DTP, NCI, 2023).
# Tested on: 138582-337-R-J1-PDC complex spheroid viability
# Experiment: Anticancer human tumor 138582-337-R-J1-PDC patient-derived Merkel cell tumor cell line growth inhibition
# Settings: for IC50: curve of first compound; for viability, T/C: stronger effect = lower value
# In short: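 Multicellular complex spheroids of tumor cells with human endothelial cells (HUVEC) and mesenchymal stem cells; the LSD1 inhibitor iadademstat was combined with standard-of-care or investigational agents. Top concentration at or near clinical Cmax, half-log dilutions; final DMSO ≤0.25%.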
# [1] = second compound 0.1 µM, first compound 0.0316 µM
# [2] = second compound 0.1 µM, first compound 0.1 µM
# [3] = second compound 0.1 µM, first compound 0.316 µM
# [4] = second compound 0.1 µM, first compound 1 µM
# [5] = second compound 0.1 µM, first compound 3.16 µM
# [6] = second compound 0.1 µM, first compound 10 µM
# [7] = second compound 0.316 µM, first compound 0.0316 µM
# [8] = second compound 0.316 µM, first compound 0.1 µM
# [9] = second compound 0.316 µM, first compound 0.316 µM
# [10] = second compound 0.316 µM, first compound 1 µM
# [11] = second compound 0.316 µM, first compound 3.16 µM
# [12] = second compound 0.316 µM, first compound 10 µM
# [13] = second compound 1 µM, first compound 0.0316 µM
# [14] = second compound 1 µM, first compound 0.1 µM
# [15] = second compound 1 µM, first compound 0.316 µM
# [16] = second compound 1 µM, first compound 1 µM
# [17] = second compound 1 µM, first compound 3.16 µM
# [18] = second compound 1 µM, first compound 10 µM
# [19] = second compound 3.16 µM, first compound 0.0316 µM
# [20] = second compound 3.16 µM, first compound 0.1 µM
# [21] = second compound 3.16 µM, first compound 0.316 µM
# [22] = second compound 3.16 µM, first compound 1 µM
# [23] = second compound 3.16 µM, first compound 3.16 µM
# [24] = second compound 3.16 µM, first compound 10 µM
# [25] = second compound 10 µM, first compound 0.0316 µM
# [26] = second compound 10 µM, first compound 0.1 µM
# [27] = second compound 10 µM, first compound 0.316 µM
# [28] = second compound 10 µM, first compound 1 µM
# [29] = second compound 10 µM, first compound 3.16 µM
# [30] = second compound 10 µM, first compound 10 µM
# 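Further: spheroids exposed to agents for 7 days.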
# 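Wherever viability, T/C is given: 100% = DMSO vehicle control viability.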
Compound,IC50 (second compound 0.1 µM) [µM],IC50 (second compound 0.316 µM) [µM],IC50 (second compound 1 µM) [µM],IC50 (second compound 3.16 µM) [µM],IC50 (second compound 10 µM) [µM],"viability, T/C [1] [%]","viability, T/C [2] [%]","viability, T/C [3] [%]","viability, T/C [4] [%]","viability, T/C [7] [%]","viability, T/C [8] [%]","viability, T/C [9] [%]","viability, T/C [10] [%]","viability, T/C [13] [%]","viability, T/C [14] [%]","viability, T/C [15] [%]","viability, T/C [16] [%]","viability, T/C [19] [%]","viability, T/C [20] [%]","viability, T/C [21] [%]",also measured
CC(C)c1c(-c2ccccc2)nc2c(C#N)c[nH]n2c1=O + NC1CC1c1ccc(-c2cccc(O)c2)cc1,6.25,4.4,4.91,2.53,> 10,69.5,76.3,66.6,62.1,69.1,73.5,71.2,67.6,76.1,68.8,82,70.2,85.7,78.6,68.6,"viability, T/C [5]: 54.4%; viability, T/C [6]: 46.9%; viability, T/C [11]: 54.7%; viability, T/C [12]: 38.5%; viability, T/C [17]: 57.5%; viability, T/C [18]: 38.2%; viability, T/C [22]: 55.9%; viability, T/C [23]: 50.1%; viability, T/C [24]: 38.5%; viability, T/C [25]: 85.7%; viability, T/C [26]: 90.9%; viability, T/C [27]: 84.9%; viability, T/C [28]: 73.9%; viability, T/C [29]: 61.1%; viability, T/C [30]: 51.6%"
CC1COCCN1c1cc(-c2ccnn2C)c2ccnc(-c3ccn[nH]3)c2n1 (stereo not given) + NC1CC1c1ccc(-c2cccc(O)c2)cc1,0.0345,0.0257,0.0384,0.0438,0.0677,50.3,34.1,26.3,28,48,42.9,27.1,27.3,54.4,28.2,30.1,25.8,59.7,33.5,27.6,"viability, T/C (second compound 0.1 µM, first compound 0.00316 µM): 62.1%; viability, T/C (second compound 0.1 µM, first compound 0.01 µM): 65%; viability, T/C (second compound 0.316 µM, first compound 0.00316 µM): 68%; viability, T/C (second compound 0.316 µM, first compound 0.01 µM): 57.4%; viability, T/C (second compound 1 µM, first compound 0.00316 µM): 77.1%; viability, T/C (second compound 1 µM, first compound 0.01 µM): 74.7%; viability, T/C (second compound 3.16 µM, first compound 0.00316 µM): 80.4%; viability, T/C (second compound 3.16 µM, first compound 0.01 µM): 65.8%; viability, T/C [22]: 26.4%; viability, T/C (second compound 10 µM, first compound 0.00316 µM): 75.6%; viability, T/C (second compound 10 µM, first compound 0.01 µM): 85%; viability, T/C [25]: 57.6%; viability, T/C [26]: 46.2%; viability, T/C [27]: 30.5%; viability, T/C [28]: 26.5%"
CC1COCCN1c1cc(C2(S(C)(=N)=O)CC2)nc(-c2ccnc3[nH]ccc23)n1 (stereo not given) + NC1CC1c1ccc(-c2cccc(O)c2)cc1,4.58,3.02,5.05,3.85,4.24,74.1,78,70.3,68.6,64.6,79,75.8,68,72,66.1,62.6,69.4,81.2,76.3,78.8,"viability, T/C [5]: 54.2%; viability, T/C [6]: 37.6%; viability, T/C [11]: 49.4%; viability, T/C [12]: 35.9%; viability, T/C [17]: 54%; viability, T/C [18]: 40.8%; viability, T/C [22]: 66.2%; viability, T/C [23]: 54%; viability, T/C [24]: 32.6%; viability, T/C [25]: 89.9%; viability, T/C [26]: 87.6%; viability, T/C [27]: 95.5%; viability, T/C [28]: 80.8%; viability, T/C [29]: 53.3%; viability, T/C [30]: 41.6%"
